From PubChem BioAssay (NCI)
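Exposure lasted 48 hours, with cells grown in 96-well plates and compounds tested at five concentrations. Abbreviation: GI50, concentration required for 50% inhibition of growth. TGI marks complete inhibition of growth.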

Experiments:
Assay in all cases: NCI anticancer screen, dose series, 48 h
RXF 393 renal = system: RXF 393 renal
NCI-H226 lung = system: NCI-H226 lung
T-47D breast = system: T-47D breast
HL-60(TB) leukemia = system: HL-60(TB) leukemia
SK-MEL-28 melanoma = system: SK-MEL-28 melanoma
SR leukemia = system: SR leukemia
PC-3 prostate = system: PC-3 prostate
HS 578T breast = system: HS 578T breast
NCI-H460 lung = system: NCI-H460 lung
CCRF-CEM leukemia = system: CCRF-CEM leukemia

Row | SMILES | TGI (RXF 393 renal) | TGI (NCI-H226 lung) | TGI (T-47D breast) | TGI (HL-60(TB) leukemia) | TGI (SK-MEL-28 melanoma) | TGI (SR leukemia) | TGI (PC-3 prostate) | TGI (HS 578T breast) | TGI (NCI-H460 lung) | TGI (CCRF-CEM leukemia) | GI50 (RXF 393 renal) | GI50 (NCI-H226 lung) | GI50 (T-47D breast) | GI50 (HL-60(TB) leukemia) | GI50 (SK-MEL-28 melanoma) | GI50 (SR leukemia) | GI50 (PC-3 prostate) | GI50 (HS 578T breast) | GI50 (NCI-H460 lung) | GI50 (CCRF-CEM leukemia)
1 | COc1ccc(NC(=O)CC(=O)N2N=C(N3c4ccccc4Sc4ccccc43)CC2c2ccccc2)cc1 (stereo not given) | > 100 µM | > 100 µM | > 100 µM | > 100 µM | > 100 µM | > 100 µM | > 100 µM | 96.9 µM | > 100 µM | > 100 µM | – | – | – | – | – | – | – | – | – | –
2 | O=C(Nc1nccs1)c1c(O)nc2sccn2c1=O | > 10 µM | > 10 µM | > 10 µM | > 10 µM | > 10 µM | > 10 µM | > 10 µM | > 10 µM | > 10 µM | > 10 µM | – | – | – | – | – | – | – | – | – | –
3 | O=[N+]([O-])c1ccc(Oc2c(Cl)cc(S(=O)(=O)/N=C(\NO)Nc3ccc(Cl)cc3)cc2Cl)cc1 | 29.9 µM | 35.3 µM | 34.3 µM | 13.7 µM | 28.7 µM | 17.2 µM | 22.2 µM | 36.7 µM | 24.8 µM | 24.5 µM | – | – | – | – | – | – | – | – | – | –
4 | Cc1ccc(C(=C2Sc3ccccc3S2)C(=C2Sc3ccccc3S2)c2ccc(C)s2)s1 | > 100 µM | > 100 µM | > 100 µM | > 100 µM | > 100 µM | 85.7 µM | > 100 µM | > 100 µM | – | > 100 µM | – | – | – | – | – | – | – | – | – | –
5 | N#CC12C(=O)N=C(N)C1(C#N)C(c1ccco1)NC1=C2CCCC1 (stereo not given) | > 100 µM | > 100 µM | > 100 µM | > 100 µM | > 100 µM | > 100 µM | > 100 µM | > 100 µM | > 100 µM | > 100 µM | – | – | – | – | – | – | – | – | – | –
6 | Cc1cn(C2CC(O)C(CO)O2)c(=O)[nH]c1=O (stereo not given) | > 5000 µM | > 5000 µM | > 5000 µM | > 5000 µM | > 5000 µM | > 5000 µM | > 5000 µM | > 5000 µM | > 5000 µM | 2390 µM | – | – | – | – | – | – | – | – | – | –
7 | COc1cccc2c(=O)oc(-c3ccc(C(C)(C)C)cc3)nc12 | > 100 µM | – | > 100 µM | 44 µM | > 100 µM | 63.1 µM | > 100 µM | > 100 µM | > 100 µM | > 100 µM | – | – | – | – | – | – | – | – | – | –
8 | Cc1ccc2c(c1)C(=O)C1(Cc3ccccc3C1=O)C2 (stereo not given) | > 100 µM | > 100 µM | > 100 µM | > 100 µM | > 100 µM | > 100 µM | > 100 µM | > 100 µM | > 100 µM | > 100 µM | – | – | – | – | – | – | – | – | – | –
9 | CCOC(=O)c1nc2c(nc1C(=O)OCC)C(=O)c1ccccc1C2=O | 2.81 µM | 1.5 µM | > 62.8 µM | 1.55 µM | 3.01 µM | 0.68 µM | 11.2 µM | 0.766 µM | 3.73 µM | > 100 µM | – | – | – | – | – | – | – | – | – | –
10 | C=CCSc1nnc2cc(CN3CCCC3)c(-c3ccc(Cl)cc3)nn12 | 31.5 µM | 26.7 µM | 71.4 µM | 43.5 µM | 47.8 µM | > 100 µM | 35.3 µM | > 100 µM | 36.1 µM | > 100 µM | – | – | – | – | – | – | – | – | – | –
11 | CC1=NN(c2cccc(Cl)c2)C2(C1=C/C=C/c1ccccc1)C(Cl)C(=O)N2c1nc2ccccc2s1 (stereo not given) | > 49 µM | > 100 µM | > 100 µM | > 68.3 µM | > 100 µM | 9.54 µM | > 82.9 µM | 49 µM | > 100 µM | > 59.3 µM | – | – | – | – | – | – | – | – | – | –
12 | CCC1(CC)C(=O)NN(C(=O)c2ccccc2)C1=O | > 100 µM | > 100 µM | > 100 µM | > 100 µM | > 100 µM | > 100 µM | > 100 µM | > 100 µM | > 100 µM | > 100 µM | – | – | – | – | – | – | – | – | – | –
13 | Cc1c(S(=O)(=O)c2ccccc2)c(N)n(CCN(C)C)c1C | > 100 µM | > 100 µM | > 100 µM | > 100 µM | > 100 µM | > 100 µM | > 100 µM | > 100 µM | > 100 µM | > 100 µM | – | – | – | – | – | – | – | – | – | –
14 | CCN(CC)CCN(C(=Nc1ccccc1)N1CCOCC1)c1ccccc1 | > 100 µM | > 100 µM | > 100 µM | > 100 µM | > 100 µM | > 100 µM | > 100 µM | > 100 µM | > 100 µM | > 100 µM | – | – | – | – | – | – | – | – | – | –
15 | NC1=NCC(CN2CCOCC2)O1 (stereo not given) | > 100 µM | – | > 100 µM | > 100 µM | > 100 µM | > 100 µM | > 100 µM | > 100 µM | > 100 µM | > 100 µM | – | – | – | – | – | – | – | – | – | –
16 | CCN(CC)CCn1c(=O)c2cccnc2n2c3c(=O)n(C)c(=O)n(C)c3nc12 | > 100 µM | > 100 µM | > 100 µM | > 100 µM | > 100 µM | > 100 µM | > 100 µM | > 100 µM | > 100 µM | > 100 µM | – | – | – | – | – | – | – | – | – | –
17 | COc1ccc2c(c1)/C(=C\c1c(Cl)nc3sc(C)cn13)C(=O)N2 | 21.1 µM | – | 14.6 µM | 6.11 µM | 25.5 µM | 15.6 µM | 12.4 µM | 9.6 µM | 12.3 µM | 6.15 µM | – | – | – | – | – | – | – | – | – | –
18 | N=C(N)SCc1ccc2c(c1)Sc1ccccc1O2 | 14 µM | 31.1 µM | 43 µM | > 63 µM | 38.7 µM | > 31.6 µM | 16.5 µM | 16.5 µM | 21.5 µM | > 54.1 µM | – | – | – | – | – | – | – | – | – | –
19 | CC1=NN(c2cccc(Cl)c2)C2(SCC(=O)N2c2nc3ccccc3s2)/C1=C\c1ccccc1O (stereo not given) | 32.8 µM | > 100 µM | 37.9 µM | 52.1 µM | > 100 µM | 37.5 µM | 61.1 µM | 65.5 µM | > 100 µM | > 100 µM | – | – | – | – | – | – | – | – | – | –
20 | CN(C)c1ccc(C(=N/N=C2\C(=O)Nc3ccccc32)c2ccc(N(C)C)cc2)cc1 | 1.23 µM | 43.3 µM | 35.5 µM | 7.4 µM | > 57.2 µM | 26.8 µM | 40 µM | > 21.9 µM | 11.2 µM | 13.2 µM | – | – | – | – | – | – | – | – | – | –
21 | CN1CSC(=S)N(c2c3ccccc3nc3ccc(Br)cc23)C1 | 24.7 µM | 37 µM | 38.3 µM | 27.2 µM | 35.2 µM | 12.6 µM | 26.3 µM | 47.2 µM | 13.6 µM | 22.8 µM | – | – | – | – | – | – | – | – | – | –
22 | O=C(O)c1ccccc1CC1Cc2ccccc2C1=O (stereo not given) | > 100 µM | > 100 µM | > 100 µM | > 100 µM | > 100 µM | > 100 µM | > 100 µM | > 100 µM | > 100 µM | > 100 µM | – | – | – | – | – | – | – | – | – | –
23 | CCOC(=O)c1ccc(NCC#CCN2CCOCC2)cc1 | > 100 µM | > 100 µM | > 100 µM | > 100 µM | > 100 µM | > 100 µM | > 100 µM | > 100 µM | – | > 100 µM | – | – | – | – | – | – | – | – | – | –
24 | [O-][n+]1ccccc1Sc1nc(Sc2cccc[n+]2[O-])nc(Sc2cccc[n+]2[O-])n1 | 2.23 µM | 6.78 µM | 8.85 µM | > 100 µM | 3.25 µM | 2.97 µM | 2.19 µM | 10.9 µM | 4.22 µM | > 100 µM | – | – | – | – | – | – | – | – | – | –
25 | COc1cccc2c1OC1(C=C2)Oc2ccccc2C(=O)N1C (stereo not given) | > 100 µM | 95.9 µM | 99 µM | 75.9 µM | > 100 µM | 54.2 µM | > 100 µM | 81.8 µM | 98.6 µM | 46.2 µM | – | – | – | – | – | – | – | – | – | –
26 | Cc1ccc(-c2[nH]c(=O)n(C3OC(CO)C(O)C(O)C3O)c(=O)c2C#N)cc1 (stereo not given) | > 100 µM | > 100 µM | > 100 µM | > 100 µM | > 100 µM | > 100 µM | > 100 µM | > 100 µM | > 100 µM | > 100 µM | – | – | – | – | – | – | – | – | – | –
27 | CO[C@H]1/C=C(/C)CCC[C@H](C)[C@H](O)[C@@H](C)C(=O)C(C)(C)[C@@H](O)CC(=O)O[C@@H]1/C(C)=C/c1csc(C)n1 | 0.0725 µM | > 100 µM | > 100 µM | > 100 µM | > 100 µM | > 58.2 µM | > 100 µM | > 100 µM | > 100 µM | > 100 µM | 0.0187 µM | 0.0324 µM | 0.0668 µM | < 0.01 µM | 0.0445 µM | 0.0151 µM | 0.0361 µM | 0.0234 µM | < 0.01 µM | 0.03 µM
28 | CC1OC(OC2C(OC(=O)[C@]34CCC(C)(C)C[C@H]3C3=CC[C@@H]5[C@@]6(C)CC[C@H](OC7OC(C(=O)O)C(O)C(O)C7O)C(C)(C)[C@@H]6CC[C@@]5(C)[C@]3(C)C[C@H]4O)OCC(O)C2O)C(O)C(OC2OCC(O)(CO)C2O)C1OC1OCC(O)C(O)C1O (stereo not given in full) | 31.5 µM | 28.3 µM | 26.4 µM | 11.4 µM | 15.2 µM | 18.9 µM | 21.3 µM | 40 µM | 36.5 µM | 52.1 µM | – | – | – | – | – | – | – | – | – | –
